Results as given in US20150105252A1, “SUBSTITUTED PYRAZOLES AS HERBICIDES” (E I DU PONT DE NEMOURS AND COMPANY, priority 2013, published 2015).

Legend:
[1] = tested on: wheat; assay: Test A preemergence; type: in vivo, Triticum aestivum; settings: Preemergence, 1000 g ai/ha; 0 to 100 scale, 0 no effect, 100 complete control
Summary of the method: (§1)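 Greenhouse test in loam soil/sand blend; compounds formulated in non-phytotoxic solvent with surfactant, applied as preemergence directed soil spray or postemergence to plants 2–10 cm tall at one- to two-leaf stage. Injury rated visually versus untreated controls after approximately 10 days on a 0 (no effect) to 100 (complete control) scale.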

[2] = tested on: pigweed; assay: Test A postemergence; type: in vivo, Amaranthus retroflexus; settings: Postemergence, 1000 g ai/ha; visual rating after approx. 10 days, 0 to 100 scale (0 no effect, 100 complete control)
Summary of the method: as §1

[3] = tested on: ryegrass, Italian; assay: Test C postemergence; type: in vivo, Lolium multiflorum; settings: postemergence
Source text: (§2) Seeds of plant species selected from blackgrass (Alopecurus myosuroides), ryegrass, Italian (Italian ryegrass, Lolium multiflorum), wheat (winter wheat, Triticum aestivum), galium (catchweed bedstraw, Galium aparine), corn (Zea mays), crabgrass, large (large crabgrass, Digitaria sanguinalis), foxtail, giant (giant foxtail, Setaria faberii), johnsongrass (Sorghum halepense), lambsquarters (Chenopodium album), morningglory (Ipomoea coccinea), nutsedge, yellow (yellow nutsedge, Cyperus esculentus), pigweed (redroot pigweed, Amaranthus retroflexus), ragweed (common ragweed, Ambrosia elation), soybean (Glycine max), barnyardgrass (Echinochloa crus-galli), oilseed rape (Brassica napus), waterhemp (common waterhemp, Amaranthus rudis), oat, wild (wild oat, Avena fatua), kochia (Kochia scoparia), Surinam grass (Brachiaria decumbens), foxtail, green (green foxtail, Setaria viridis), goosegrass (Eleusine indica), bromegrass, downy (downy bromegrass, Bromus tectorum), nightshade (eastern black nightshade, Solanum ptycanthum), cocklebur (common cocklebur, Xanthium strumarium), cupgrass, woolly (woolly cupgrass, Eriochloa villosa), bermudagrass (Cynodon dactylon), sunflower, (common oilseed sunflower, Helianthus annuus), Russian thistle (Salsola kali), and velvetleaf (Abutilon theophrasti) were planted into a blend of loam soil and sand and treated preemergence with test chemicals formulated in a non-phytotoxic solvent mixture which included a surfactant.
(§3) At the same time, plants selected from these crop and weed species and also chickweed (common chickweed, Stellaria media), canarygrass (littleseed canarygrass, Phalaris minor), and deadnettle (henbit deadnettle, Lamium amplexicaule), were planted in pots containing Redi-Earth® planting medium (Scotts Company, 14111 Scottslawn Road, Marysville, Ohio 43041) comprising spaghnum peat moss, vermiculite, wetting agent and starter nutrients and treated with postemergence applications of test chemicals formulated in the same manner. Plants ranged in height from 2 to 18 cm (1- to 4-leaf stage) for postemergence treatments. Treated plants and controls were maintained in a greenhouse for 13 to 15 days, after which time all species were compared to controls and visually evaluated. Plant response ratings, summarized in Table C, are based on a scale of 0 to 100 where 0 is no effect and 100 is complete control. A dash (-) response means no test result.

[4] = tested on: corn; assay: Test C postemergence; type: in vivo, Zea mays; settings: for Corn plant response rating: Postemergence, 31 g ai/ha, scale 0 to 100; for Plant response rating, Corn: postemergence
Source text: as §2, §3

[5] = tested on: lambsquarters; assay: Test C postemergence; type: in vivo, Chenopodium album; settings: for Lambsquarters plant response rating: Postemergence, 31 g ai/ha, scale 0 to 100; for Plant response rating, Lambsquarters: postemergence
Source text: as §2, §3

[6] = 250 g ai/ha, scale 0 to 100 (0 no effect, 100 complete control)
[7] = 62 g ai/ha, scale 0 to 100, 0 no effect, 100 complete control
[8] = 125 g ai/ha, scale 0 to 100, 0 no effect, 100 complete control

| Structure (SMILES) | Wheat plant response rating [1] | Pigweed plant response rating [2] | Plant response rating, Ryegrass, Italian [3, 6] | Plant response rating, Ryegrass, Italian [3, 7] | Plant response rating, Ryegrass, Italian [3, 8] | Corn plant response rating [4] | Plant response rating, Corn [4, 6] | Plant response rating, Corn [4, 7] | Plant response rating, Corn [4, 8] | Lambsquarters plant response rating [5] | Plant response rating, Lambsquarters [5, 6] | Plant response rating, Lambsquarters [5, 7] | Plant response rating, Lambsquarters [5, 8] |
| --- | --- | --- | --- | --- | --- | --- | --- | --- | --- | --- | --- | --- | --- |
| CCc1cc(C(=O)NCC(F)(F)F)nn1Cc1cccc(OC(F)(F)F)c1 [Compound 20] | 20 | 100 | 25 | 10 | 15 | 15 | 25 | 20 | 20 | 60 | 75 | 60 | 65 |
| CCCNC(=O)c1cc(CC)n(Cc2cccc(OC(F)(F)F)c2)n1 [Compound 27] | 20 | 70 | 15 | 5 | 10 | 10 | 15 | 10 | 15 | 50 | 65 | 50 | 50 |
